Assay results from paper PMC4051656, “Cyanuric Acid Hydrolase from Azorhizobium caulinodans ORS 571: Crystal Structure and Insights into a New Class of Ser-Lys Dyad Proteins” (PLoS ONE, 2014).

Biological target: T1, CAH (cyanuric acid hydrolase from Azorhizobium caulinodans ORS 571) (Azorhizobium caulinodans, UniProt A8IKD2)
T1 construct: gene AZC_3892; heterologously expressed and purified; selenomethionine-substituted for the crystal; domains A 1-99, B 108-242, C 249-355; homotetramer
T1 sequence (A8IKD2 1-356): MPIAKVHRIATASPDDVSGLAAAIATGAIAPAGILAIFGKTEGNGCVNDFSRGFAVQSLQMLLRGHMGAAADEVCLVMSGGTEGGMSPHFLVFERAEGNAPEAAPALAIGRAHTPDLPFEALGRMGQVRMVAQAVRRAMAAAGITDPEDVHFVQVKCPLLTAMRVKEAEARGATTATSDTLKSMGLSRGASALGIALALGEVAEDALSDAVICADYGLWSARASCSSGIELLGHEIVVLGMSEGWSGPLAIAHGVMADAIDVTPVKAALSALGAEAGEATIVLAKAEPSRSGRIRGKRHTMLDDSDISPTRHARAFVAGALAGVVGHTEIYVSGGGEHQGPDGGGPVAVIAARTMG
Test: X-ray crystal structure of complex (SAD, […] Å)
Assay type: binding
Conditions: selenomethionine protein; Tris-HCl pH 7.0-7.5, magnesium sulfate, 20 °C; active site in both subunits; second site on surface of one subunit at lower occupancy

O=C1CC(=O)NC(=O)N1 [barbituric acid]
X-ray crystal structure of complex (SAD, 2.7 Å): a molecule of the highly analogous substrate analog, barbituric acid was found
